Reference: patent publication US12398141B2 (SHANGHAI SYNERGY PHARMACEUTICAL SCIENCES CO., LTD, priority 2019, dated 2025)

Tests used:
Sprague-Dawley (SD) mice = assay: Concanavalin-induced paw swelling in mice; type: in vivo; conditions: 10 mg/kg intragastric; for Paw swelling rate_1 h (%): 1 h; for Paw swelling rate_2 h (%): 2 h; for Paw swelling rate_4 h (%): 4 h; for Paw swelling rate_6 h (%): 6 h
Experimental: The inhibiting effects of compounds H13, H14, H09, H11 and compounds of Example 12 on paw swelling in […] were determined after intragastric administration by using Sprague-Dawley (SD) […] (ShanghaiSippr-BK laboratory animal Co. Ltd.), aged 6-7 weeks and weighing 160-180 g as test animals. The anti-inflammatory pharmacodynamics characteristic of the compounds of the invention was discussed.
A certain amount of compounds were taken and dissolved in 4% Tween 80/0.5% hydroxy propyl methyl cellulose solution.
Mice were given compounds H01, H07, H11, H12, H14, H15, H22, H25, H29, H30, H33, H39, and H44 and the positive drug indomethacin (Diamond Reagent Co., Ltd., China) by intragastric administration at the dosages shown in the table below and 0.1 ml 0.03% (W/V) concanavalin was injected subcutaneously into the plantar 0.5 h later. A paw volume was measured with a paw swelling meter before modeling and 1 h, 2 h, 4 h and 6 h after modeling. According to the formula: paw swelling rate=(paw volume after administration−basic paw volume)/basic paw volume×100, the inhibiting effect of the compounds on paw volume was calculated. The basic paw volume was a paw volume before administration.

hERG potassium channel = hERG potassium channel (Homo sapiens (Human), UniProt Q12809); assay: hERG potassium channel current, manual patch clamp; type: cell-based; conditions: HEK293 cells overexpressing hERG potassium channel, whole-cell patch clamp; read-out: IC50 (μM) inhibiting hERG current
Experimental: Effects of compounds H07, H12, H14, H25, H30, H39 and H44 on hERG potassium channel were detected by applying electrophysiological manual patch clamp to study an initial cardiac safety of the compounds of the invention.
Test compounds were dissolved in dimethyl sulfoxide to prepare mother solutions (10 mM, 3.3 mM, 1.1 mM and 0.37 mM). Next an extracellular fluid was used for secondary dilution so that the test solution had final concentrations of 30 μM, 10 μM, 3.3 μM, 1.1 μM and 0.37 μM.
Extracellular fluids: 130 mM sodium chloride, 4 mM potassium chloride, 1.8 mM calcium chloride, 1 mM magnesium chloride, 10 mM glucose, 10 mM 4-hydroxyethylpiperazine ethane sulfonic acid (pH 7.4)
Intracellular fluid: 130 mM potassium chloride, 1 mM magnesium chloride, 5 mM ethylene glycol diethyl ether diamine tetraacetic acid, 5 mM triphosadenine and 10 mM 4-hydroxyethylpiperazine ethane sulfonic acid (pH7.2)
Compositions of a cell culture medium: Dulbecco's modified eagle medium (Grand Turk Island Biotechnology Company, 11330032), 15% fetal calf serum (Sigma, A15-101, USA), 1% penicillin-streptomycin (Biowest, L0022-100).
HEK293 cells overexpressing hERG potassium channel (from Dr. Mohamed Boutjdir's laboratory, School of Medicine, New York University—PharmaCore Labs, Inc.) were incubated in a medium consisting of Dulbecco's modified eagle medium/15% fetal calf serum/1% penicillin-streptomycin in a 5% CO2 incubator at 37° C. In the test, the cells were transferred to a cell bath embedded into a inverted microscope platform, and extracellular fluid was perfused. After stabilization for 5 minutes, the cells were precipitated and then the test could start. Membrane currents were recorded by using HEKA EPC-10 patch clamp amplifier and […] acquisition system (HEKA Instrument Co., Ltd., D-67466 Lambrcht, Palatinate, Germany). All tests were completed at room temperature (22-24° C.). P-97 microelectrode puller (Sutter Instrument Company, Novato, […] 94949) was used to straighten the electrodes (BF150-110-10). The inner diameter of the electrode was 1-1.5 mm, and the water resistance after internal liquid filling was 2-4 MΩ.
Tests were carried out in whole-cell recording mode, with current values recorded according to the electrophysiological stimulation protocol below. First, the membrane voltage was clamped at −80 mV, and the cells were stimulated with +20 mV for two seconds to activate hERG potassium channel, which was then repolarized to −50 mV for five seconds, producing an outward tail current with a stimulation frequency of every 15 seconds. The current value was a peak value of the tail current. In the test, the channel current was recorded in the whole-cell recording mode. First, extracellular fluid (about 2 ml per minute) was perfused and recorded continuously, and then the current was allowed to stabilize (current decay (run-down) was less than 5% within 5 minutes). At this time, the peak value of the tail current was the control current value. Subsequently, the extracellular fluid containing the drug to be tested was perfused and recorded continuously until the inhibiting effect of drug on hERG current reached a stable state, at which time the peak value of the tail current was the current value after adding drugs. After a stable situation was achieved, if hERG current recovered after perfusing and washing with extracellular fluid, perfusion could be continued to test other concentrations or drugs. The solution containing the drugs to be tested was perfused in descending order of concentration and the current values were recorded. […] V2X60 (HEKA Instrument Co., Ltd., D-67466 Lambrcht, Palatinate, Germany) was used to collect data. ORANGE 8.5 (ORANGE Laboratory Company, Northampton, UK) software was used for the analysis and statistics.

hERG potassium channel, sequence (Q12809 whole entry): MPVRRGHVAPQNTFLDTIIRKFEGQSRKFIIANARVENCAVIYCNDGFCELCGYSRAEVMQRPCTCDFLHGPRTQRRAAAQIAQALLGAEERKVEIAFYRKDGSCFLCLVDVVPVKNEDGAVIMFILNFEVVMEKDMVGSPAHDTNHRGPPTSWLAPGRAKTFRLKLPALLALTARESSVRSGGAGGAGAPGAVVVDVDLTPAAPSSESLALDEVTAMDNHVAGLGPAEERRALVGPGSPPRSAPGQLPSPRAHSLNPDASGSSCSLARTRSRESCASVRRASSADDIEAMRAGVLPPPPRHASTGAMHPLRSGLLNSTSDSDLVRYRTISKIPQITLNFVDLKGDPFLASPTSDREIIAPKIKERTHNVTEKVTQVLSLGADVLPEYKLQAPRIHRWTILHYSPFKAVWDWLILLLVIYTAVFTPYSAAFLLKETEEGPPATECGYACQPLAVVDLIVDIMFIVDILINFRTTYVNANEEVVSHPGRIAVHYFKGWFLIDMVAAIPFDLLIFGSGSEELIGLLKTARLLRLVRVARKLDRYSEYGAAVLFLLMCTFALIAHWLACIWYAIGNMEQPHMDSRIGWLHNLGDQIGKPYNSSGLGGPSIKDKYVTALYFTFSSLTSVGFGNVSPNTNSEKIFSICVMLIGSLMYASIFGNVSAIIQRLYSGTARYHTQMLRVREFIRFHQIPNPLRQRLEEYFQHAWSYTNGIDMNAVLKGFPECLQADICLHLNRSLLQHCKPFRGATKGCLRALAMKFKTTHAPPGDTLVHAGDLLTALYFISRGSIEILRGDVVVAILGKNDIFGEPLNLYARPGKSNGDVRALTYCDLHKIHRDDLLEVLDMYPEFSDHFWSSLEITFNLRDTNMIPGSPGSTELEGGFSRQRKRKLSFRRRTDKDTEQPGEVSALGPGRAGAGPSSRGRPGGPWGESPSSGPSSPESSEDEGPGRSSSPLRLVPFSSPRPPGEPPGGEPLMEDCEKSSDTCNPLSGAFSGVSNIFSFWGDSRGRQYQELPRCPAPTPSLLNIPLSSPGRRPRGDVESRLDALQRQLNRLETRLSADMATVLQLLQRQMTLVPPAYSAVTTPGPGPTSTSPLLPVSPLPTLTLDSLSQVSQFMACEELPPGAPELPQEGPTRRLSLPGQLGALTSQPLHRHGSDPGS

SMILES: N#Cc1cnc2[nH]ccc2c1N[C@H]1C[C@@H](NS(=O)(=O)CCC(F)(F)F)C1 [Compound H12, (cis)-4-{[3-(3,3,3-trifluoropropanesulfonamido)-cyclobutyl-1-yl]-amino}-1H-pyrrolo[2,3-b]pyridin-5-carbonitrile]
- Paw swelling rate_1 h (%) (Sprague-Dawley (SD) mice): 28.90 ± 2.00%
- Paw swelling rate_2 h (%) (Sprague-Dawley (SD) mice): 23.10 ± 3.00%
- Paw swelling rate_4 h (%) (Sprague-Dawley (SD) mice): 24.00 ± 2.90%
- Paw swelling rate_6 h (%) (Sprague-Dawley (SD) mice): 24.00 ± 3.00%
- IC50 (hERG potassium channel): > 30 µM

SMILES: CN(C)c1nsc(NC(=O)N2C[C@H]3C[C@H](N(C)c4c(C#N)cnc5[nH]ccc45)C[C@H]3C2)n1 [Compound H33, (3aR,5s,6aS)-4-({2-[(3-dimethylamino-1,2,4-thiadiazole-5-yl)carbamoyl]-hexahydrocyclopenta[c]pyrrole-5-yl}-methyl-amino)-1H-pyrrolo[2,3-b]pyridin-5-carbonitrile]
- Paw swelling rate_1 h (%) (Sprague-Dawley (SD) mice): 27.80 ± 2.00%
- Paw swelling rate_2 h (%) (Sprague-Dawley (SD) mice): 29.20 ± 3.10%
- Paw swelling rate_4 h (%) (Sprague-Dawley (SD) mice): 30.10 ± 2.90%
- Paw swelling rate_6 h (%) (Sprague-Dawley (SD) mice): 30.10 ± 2.90%

SMILES: N#Cc1cnc2[nH]ccc2c1N1CC2CN(C(=O)NCC(F)(F)F)CC21 (stereo not shown) [Compound H39, 6-(5-cyano-1H-pyrrolo[2,3-b]pyridin-4-yl)-N-(2,2,2-trifluoroethyl)-3,6-diazabicyclo[3.2.0]heptane-3-carboxamide]
- Paw swelling rate_1 h (%) (Sprague-Dawley (SD) mice): 31.10 ± 2.30%
- Paw swelling rate_2 h (%) (Sprague-Dawley (SD) mice): 25.60 ± 4.00%
- Paw swelling rate_4 h (%) (Sprague-Dawley (SD) mice): 26.30 ± 3.30%
- Paw swelling rate_6 h (%) (Sprague-Dawley (SD) mice): 25.30 ± 3.30%
- IC50 (hERG potassium channel): > 30 µM

SMILES: CC(C)c1nsc(NC(=O)N2C[C@H]3C[C@H](N(C)c4c(C#N)cnc5[nH]ccc45)C[C@H]3C2)n1 [Compound H30, (3aR,5s,6aS)-4-({2-[(3-isopropyl-1,2,4-thiadiazole-5-yl)carbamoyl]-hexahydrocyclopenta[c]pyrrole-5-yl}-methyl-amino)-1H-pyrrolo[2,3-b]pyridin-5-carbonitrile]
- Paw swelling rate_1 h (%) (Sprague-Dawley (SD) mice): 24.40 ± 2.40%
- Paw swelling rate_2 h (%) (Sprague-Dawley (SD) mice): 25.20 ± 3.40%
- Paw swelling rate_4 h (%) (Sprague-Dawley (SD) mice): 26.00 ± 2.30%
- Paw swelling rate_6 h (%) (Sprague-Dawley (SD) mice): 24.50 ± 2.30%
- IC50 (hERG potassium channel): > 30 µM

SMILES: COc1nsc(NC(=O)N[C@H]2C[C@@H](N(C)c3c(C#N)cnc4[nH]ccc34)C2)n1 [Compound H29, (cis)-1-(3-((5-cyano-1H-pyrrolo[2,3-b]pyridin-4-yl)(methyl)amino)cyclobutyl)-3-(3-methoxy-1,2,4-thiadiazole-5-yl)urea]
- Paw swelling rate_1 h (%) (Sprague-Dawley (SD) mice): 23.70 ± 1.60%
- Paw swelling rate_2 h (%) (Sprague-Dawley (SD) mice): 23.20 ± 2.60%
- Paw swelling rate_4 h (%) (Sprague-Dawley (SD) mice): 32.20 ± 3.50%
- Paw swelling rate_6 h (%) (Sprague-Dawley (SD) mice): 29.20 ± 3.50%

SMILES: C[C@@H]1CCN(C(=O)CC#N)C[C@@H]1N(C)c1c(C#N)cnc2[nH]ccc12 [Compound H11, 4-{[(3R,4R)-1-(2-cyanoacetyl)-4-methylpiperidin-3-yl]-methyl-amino}-1H-pyrrolo[2,3-b]pyridin-5-carbonitrile]
- Paw swelling rate_1 h (%) (Sprague-Dawley (SD) mice): 23.50 ± 2.40%
- Paw swelling rate_2 h (%) (Sprague-Dawley (SD) mice): 25.80 ± 3.30%
- Paw swelling rate_4 h (%) (Sprague-Dawley (SD) mice): 31.00 ± 2.10%
- Paw swelling rate_6 h (%) (Sprague-Dawley (SD) mice): 32.00 ± 2.10%

SMILES: COc1nsc(NC(=O)N2C[C@H]3C[C@H](N(C)c4c(C#N)cnc5[nH]ccc45)C[C@H]3C2)n1 [Compound H07, (3aR,5s,6aS)-4-({2-[(3-methoxy-1,2,4-thiadiazole-5-yl)carbamoyl]-hexahydrocyclopenta[c]pyrrole-5-yl}-methyl-amino)-1H-pyrrolo[2,3-b]pyridin-5-carbonitrile]
- Paw swelling rate_1 h (%) (Sprague-Dawley (SD) mice): 25.20 ± 2.10%
- Paw swelling rate_2 h (%) (Sprague-Dawley (SD) mice): 32.10 ± 1.70%
- Paw swelling rate_4 h (%) (Sprague-Dawley (SD) mice): 22.30 ± 4.20%
- Paw swelling rate_6 h (%) (Sprague-Dawley (SD) mice): 21.30 ± 4.20%
- IC50 (hERG potassium channel): > 30 µM

SMILES: CN(c1c(C#N)cnc2[nH]ccc12)[C@H]1C[C@@H]2CN(C(=O)Nc3nc(OCC(C)(C)N)ns3)C[C@@H]2C1 [Compound H44, (3aR,5s,6aS)-5-((5-cyano-1H-pyrrolo[2,3-b]pyridin-4-yl)(methyl)amino)-N-(3-(2-amino-2-methyl-propoxy)-1,2,4-thiadiazole-5-yl)hexahydrocyclopentadiene[c]pyrrole-2(1H)-carboxamide]
- Paw swelling rate_1 h (%) (Sprague-Dawley (SD) mice): 23.80 ± 1.60%
- Paw swelling rate_2 h (%) (Sprague-Dawley (SD) mice): 24.80 ± 2.50%
- Paw swelling rate_4 h (%) (Sprague-Dawley (SD) mice): 24.20 ± 2.90%
- Paw swelling rate_6 h (%) (Sprague-Dawley (SD) mice): 23.50 ± 2.90%
- IC50 (hERG potassium channel): > 30 µM

SMILES: CCCS(=O)(=O)N[C@H]1C[C@@H](N(C)c2c(C#N)cnc3[nH]ccc23)C1 [Compound H14, (cis)-4-{[3-(propanesulfonamido)-cyclobutyl-1-yl]-methyl-amino}-1H-pyrrolo[2,3-b]pyridin-5-carbonitrile]
- Paw swelling rate_1 h (%) (Sprague-Dawley (SD) mice): 32.10 ± 5.20%
- Paw swelling rate_2 h (%) (Sprague-Dawley (SD) mice): 25.90 ± 5.00%
- Paw swelling rate_4 h (%) (Sprague-Dawley (SD) mice): 25.50 ± 4.00%
- Paw swelling rate_6 h (%) (Sprague-Dawley (SD) mice): 25.10 ± 4.20%
- IC50 (hERG potassium channel): > 30 µM

SMILES: CN(c1c(C#N)cnc2[nH]ccc12)[C@H]1C[C@@H](NS(=O)(=O)CCC(F)(F)F)C1 [Compound H15, (cis)-4-{[3-(3,3,3-trifluoropropanesulfonamide)-cyclobutyl-1-yl]-methyl-amino}-1H-pyrrolo[2,3-b]pyridin-5-carbonitrile]
- Paw swelling rate_1 h (%) (Sprague-Dawley (SD) mice): 24.50 ± 2.50%
- Paw swelling rate_2 h (%) (Sprague-Dawley (SD) mice): 25.90 ± 3.40%
- Paw swelling rate_4 h (%) (Sprague-Dawley (SD) mice): 32.00 ± 2.30%
- Paw swelling rate_6 h (%) (Sprague-Dawley (SD) mice): 31.00 ± 2.30%

SMILES: CN(c1c(C#N)cnc2[nH]ccc12)[C@H]1C[C@@H]2CN(C(=O)Nc3ccc(Cl)c(C(F)(F)F)c3)C[C@@H]2C1 [Compound H25, (3aR,5s,6aS)-N-(4-chloro-3-(trifluoromethyl)phenyl)-5-((5-cyano-1H-pyrrolo[2,3-b]pyridin-4-yl)(methyl)amino)hexahydrocyclopentadiene[c]pyrrole-2(1H)-carboxamide]
- Paw swelling rate_1 h (%) (Sprague-Dawley (SD) mice): 32.10 ± 5.20%
- Paw swelling rate_2 h (%) (Sprague-Dawley (SD) mice): 26.90 ± 5.00%
- Paw swelling rate_4 h (%) (Sprague-Dawley (SD) mice): 24.50 ± 4.00%
- Paw swelling rate_6 h (%) (Sprague-Dawley (SD) mice): 24.50 ± 4.00%
- IC50 (hERG potassium channel): > 30 µM

SMILES: CN(c1c(C#N)cnc2[nH]ccc12)[C@H]1C[C@@H]2CN(C(=O)NCC(F)(F)F)C[C@@H]2C1 [Compound H22, (3aR,5s,6aS)-4-({2-[(2,2,2-trifluoroethyl)-carbamoyl]-hexahydrocyclopenta[c]pyrrole-5-yl}-methyl-amino)-1H-pyrrolo[2,3-b]pyridin-5-carbonitrile]
- Paw swelling rate_1 h (%) (Sprague-Dawley (SD) mice): 29.80 ± 2.00%
- Paw swelling rate_2 h (%) (Sprague-Dawley (SD) mice): 29.10 ± 3.00%
- Paw swelling rate_4 h (%) (Sprague-Dawley (SD) mice): 31.00 ± 2.90%
- Paw swelling rate_6 h (%) (Sprague-Dawley (SD) mice): 31.00 ± 2.90%
